In patent US20100267561A1, “HERBICIDAL PYRIDAZINONE DERIVATIVES” (priority 2007, published 2010):

Key:
Assay type in all cases: in vivo
[1] = tested on: eastern black (E.B.) nightshade (Solanum ptycanthum); assay: Test B pre-/postemergence plant response; conditions: Preemergence
Method in brief: (§1)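 Seeds were sown and sprayed preemergence, while plants at 2 to 18 cm (1- to 4-leaf stage) got postemergence sprays. Compounds were formulated in a non-phytotoxic solvent mixture with surfactant. After 13 to 15 days in a greenhouse, injury was rated visually against untreated controls, 0 (no effect) to 100 (complete control).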

[2] = tested on: common (oilseed) sunflower (Helianthus annuus); assay: Test B pre-/postemergence plant response; conditions: Preemergence
Method in brief: as §1

[3] = tested on: surinam grass (Brachiaria decumbens); assay: Test B pre-/postemergence plant response
Method in brief: as §1

[4] = tested on: Russian thistle (Salsola iberica); assay: Test B pre-/postemergence plant response; conditions: Preemergence
Method in brief: as §1

[5] = tested on: giant foxtail (Setaria faberii); assay: Test B pre-/postemergence plant response
Method in brief: as §1

[6] = tested on: wheat (Triticum aestivum); assay: Test B pre-/postemergence plant response
Method in brief: as §1

[7] = tested on: morningglory (Ipomoea coccinea); assay: Test B pre-/postemergence plant response
Method in brief: as §1

[8] = tested on: goosegrass (Eleusine indica); assay: Test B pre-/postemergence plant response
Method in brief: as §1

[9] = tested on: soybean (Glycine max); assay: Test B pre-/postemergence plant response
Method in brief: as §1

[10] = tested on: downy bromegrass (Bromus tectorum); assay: Test B pre-/postemergence plant response; conditions: for Bromegrass, Downy plant response rating: 8 g ai/ha
Method in brief: as §1

[11] = tested on: umbrella sedge (Cyperus difformis); assay: Test B flooded paddy test plant response
Method in brief: (§2)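 Rice, umbrella sedge, ducksalad and barnyardgrass at 2-leaf stage; pots flooded to 3 cm, compounds applied into paddy water, depth held throughout. Greenhouse 13 to 15 days, then visual rating vs untreated controls on 0–100 scale (0 no effect, 100 complete control); dash means no test result.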

[12] = tested on: barnyardgrass (Echinochloa crus-galli); assay: Test B flooded paddy test plant response
Method in brief: as §2

[13] = tested on: ducksalad (Heteranthera limosa); assay: Test B flooded paddy test plant response
Method in brief: as §2

[14] = tested on: rice (Oryza sativa); assay: Test B flooded paddy test plant response
Method in brief: as §2

[15] = 31 g ai/ha, scale 0 to 100 (0 no effect, 100 complete control)
[16] = 8 g ai/ha, postemergence, 0-100 scale
[17] = Postemergence, 16 g ai/ha, scale 0 to 100
[18] = Postemergence, 31 g ai/ha, scale 0 to 100
[19] = Postemergence, 62 g ai/ha, scale 0 to 100, 0 no effect, 100 complete control
[20] = Preemergence, 31 g ai/ha, scale 0 to 100 (0 no effect, 100 complete control)
[21] = Preemergence, 62 g ai/ha, 0 to 100 scale, 0 no effect, 100 complete control
[22] = Preemergence, 8 g ai/ha, scale 0 to 100
[23] = Preemergence, 16 g ai/ha, scale 0 to 100
[24] = Preemergence, 31 g ai/ha, 0 to 100 scale, 0 no effect, 100 complete control
[25] = Preemergence, 62 g ai/ha, scale 0 to 100
[26] = Flood (flooded paddy test), 62 g ai/ha, scale 0 to 100, 0 no effect, 100 complete control
[27] = Flood (flooded paddy test), 125 g ai/ha, scale 0 to 100, 0 no effect, 100 complete control
[28] = Flood (flooded paddy test), 250 g ai/ha, scale 0 to 100, 0 no effect, 100 complete control
[29] = Flood, 31 g ai/ha, scale 0 to 100

## CCOC(=O)Oc1cnn(C)c(=O)c1-n1nc(-c2ccc(Cl)cc2)cc1C [Compound 53]
[1]; [15]
  Plant response rating, Nightshade, E. B.: 15
[1]; 62 g ai/ha, scale 0 to 100
  Plant response rating, Nightshade, E. B.: 20
[1]; 8 g ai/ha, scale 0 to 100
  Nightshade, E. B. plant response rating: 0
[1]; 16 g ai/ha, scale 0 to 100
  Nightshade, E. B. plant response rating: 0
[2]; [15]
  Plant response rating, Sunflower: 0
[2]; 62 g ai/ha, scale 0 to 100
  Plant response rating, Sunflower: 0
[2]; 8 g ai/ha, scale 0 to 100
  Sunflower plant response rating: 0
[2]; 16 g ai/ha, scale 0 to 100
  Sunflower plant response rating: 0
[3]; [16]
  Surinam Grass plant response rating: 75
[3]; [17]
  Plant response rating, Surinam Grass: 98
[3]; [18]
  Plant response rating, Surinam Grass: 100
[3]; [19]
  Plant response rating, Surinam Grass: 100
[3]; [20]
  Plant response rating, Surinam Grass: 60
[3]; [21]
  Plant response rating, Surinam Grass: 95
[3]; [22]
  Surinam Grass plant response rating: 0
[3]; [23]
  Surinam Grass plant response rating: 20
[4]; [15]
  Plant response rating, Russian Thistle: 0
[4]; 62 g ai/ha, scale 0 to 100
  Plant response rating, Russian Thistle: 0
[4]; 8 g ai/ha, scale 0 to 100
  Russian Thistle plant response rating: 0
[4]; 16 g ai/ha, scale 0 to 100
  Russian Thistle plant response rating: 0
[5]; [16]
  Foxtail, Giant plant response rating: 85
[5]; [17]
  Plant response rating, Foxtail, Giant: 95
[5]; [18]
  Plant response rating, Foxtail, Giant: 100
[5]; [19]
  Plant response rating, Foxtail, Giant: 100
[5]; [24]
  Plant response rating, Foxtail, Giant: 45
[5]; [25]
  Plant response rating, Foxtail, Giant: 70
[5]; [22]
  Foxtail, Giant plant response rating: 0
[5]; [23]
  Foxtail, Giant plant response rating: 20
[6]; [16]
  Wheat plant response rating: 5
[6]; [17]
  Plant response rating, Wheat: 55
[6]; [18]
  Plant response rating, Wheat: 85
[6]; [19]
  Plant response rating, Wheat: 85
[6]; [20]
  Plant response rating, Wheat: 0
[6]; [21]
  Plant response rating, Wheat: 55
[6]; [23]
  Wheat plant response rating: 0
[7]; [16]
  Morningglory plant response rating: 0
[7]; [17]
  Plant response rating, Morningglory: 0
[7]; [18]
  Plant response rating, Morningglory: 0
[7]; [19]
  Plant response rating, Morningglory: 0
[7]; [20]
  Plant response rating, Morningglory: 0
[7]; [25]
  Plant response rating, Morningglory: 0
[7]; [22]
  Morningglory plant response rating: 0
[7]; [23]
  Morningglory plant response rating: 0
[8]; [16]
  Goosegrass plant response rating: 20
[8]; [17]
  Plant response rating, Goosegrass: 60
[8]; [18]
  Plant response rating, Goosegrass: 65
[8]; [19]
  Plant response rating, Goosegrass: 100
[8]; [24]
  Plant response rating, Goosegrass: 0
[8]; [25]
  Plant response rating, Goosegrass: 0
[8]; [22]
  Goosegrass plant response rating: 0
[8]; [23]
  Goosegrass plant response rating: 0
[9]; [16]
  Soybean plant response rating: 0
[9]; [17]
  Plant response rating, Soybean: 0
[9]; [18]
  Plant response rating, Soybean: 0
[9]; [19]
  Plant response rating, Soybean: 0
[9]; [20]
  Plant response rating, Soybean: 0
[9]; [25]
  Plant response rating, Soybean: 65
[9]; [22]
  Soybean plant response rating: 0
[9]; [23]
  Soybean plant response rating: 0
[10]; postemergence, 0-100 scale
  Bromegrass, Downy plant response rating: 10
[10]; [17]
  Plant response rating, Bromegrass, Downy: 45
[10]; [18]
  Plant response rating, Bromegrass, Downy: 60
[10]; [19]
  Plant response rating, Bromegrass, Downy: 90
[10]; Preemergence, 16 g ai/ha, scale 0 to 100 (0 no effect, 100 complete control)
  Plant response rating, Bromegrass, Downy: 50
[10]; [24]
  Plant response rating, Bromegrass, Downy: 70
[10]; [25]
  Plant response rating, Bromegrass, Downy: 90
[10]; Preemergence, scale 0 to 100
  Bromegrass, Downy plant response rating: 10
[11]; [26]
  Plant response rating, Sedge, Umbrella: 0
[11]; [27]
  Plant response rating, Sedge, Umbrella: 40
[11]; [28]
  Plant response rating, Sedge, Umbrella: 70
[11]; [29]
  Plant response rating, Sedge, Umbrella: 0
[12]; [26]
  Plant response rating, Barnyardgrass: 0
[12]; [27]
  Plant response rating, Barnyardgrass: 0
[12]; [28]
  Plant response rating, Barnyardgrass: 40
[12]; [29]
  Plant response rating, Barnyardgrass: 0
[13]; [26]
  Plant response rating, Ducksalad: 0
[13]; [27]
  Plant response rating, Ducksalad: 50
[13]; [28]
  Plant response rating, Ducksalad: 50
[13]; [29]
  Plant response rating, Ducksalad: 0
[14]; [26]
  Plant response rating, Rice: 0
[14]; [27]
  Plant response rating, Rice: 0
[14]; [28]
  Plant response rating, Rice: 30
[14]; [29]
  Plant response rating, Rice: 0
